In patent US8173668B1 (Alcon Research, Ltd., priority 2007, dated 2012):

Legend:
[1] = tested on: conscious ocular hypertensive cynomolgus monkey eyes; assay: IOP response in lasered (hypertensive) eyes of conscious cynomolgus monkeys, topical ocular; type: in vivo
Method: Intraocular pressure (IOP) is determined with an Alcon Pneumatonometer (Alcon Laboratories, Inc., Fort Worth, Tex.) after light corneal anesthesia with 0.1% proparacaine. Right eyes are hypertensive as a result of laser trabeculoplasty. After a baseline IOP measurement, test compound is instilled in the right eyes only of 8-10 cynomolgus monkeys. Vehicle is instilled in the right eyes of 5-6 additional animals. Subsequent IOP measurements are taken at 1, 3, and 6 hours. IOP measurements are also taken on left eyes (normotensive and untreated) at each of these time points. The percent change in IOP from baseline is determined for each animal for every IOP measurement (Sharif et al. J. Ocular Pharmacol. Ther. 17: 305-317, 2001; May et al., J Pharmacol Exp Ther. 306: 301-309, 2003; Sharif et al. Invest. Ophthalmol. Vis. Res. 47: 4001-4010, 2006). Group mean and standard error of the mean (SEM) are calculated for each time point. […] In cases where the compound of invention has poor ocular bioavailability, the compound may need to be administered intracamerally or intravitreally in order to observe the IOP-lowering efficacy.
The IOP-lowering effect was slow to develop but significant IOP reduction was observed even 3 hours post-dosing with maximum ocular hypotension observed 16-48 hours post-dosing (Tables 6-8; FIGS. 3b-5).

h-NPE cells = assay: Prostaglandin production in h-NPE cells; type: cell-based, human; settings: 1-10 μM
Method: A functional assay to discover BK agonists may involve the measurement of prostaglandin E2 (PGE2) production (Wiernas et al. Brit. J. Pharmacol. 123: 1127-1137, 1998), for instance, in cells isolated from human or animal ocular or non-ocular tissues, or cells expressing recombinant (preferably human) BK receptors. Cells expressing BK receptors are seeded in 48-wells culture plates and allowed to reach confluence. After this time the cells are rinsed twice with 0.5 mL of phosphate buffered saline and incubated with the test agent made up in 0.5 mL Dulbeco's modified Eagle's medium (DMEM)/F-12 for 1 h at 37° C. […]
After this incubation, all tubes are placed in an ice-bath and 1 ml cold precipitating reagent supplied in the kit is added to the tubes, the content mixed and incubated for 25 min at 4° C. […] The supernatants of all tubes are decanted as specified in the kit instructions and the RIA samples analyzed on a gamma-counter. The levels of PGE2 generated by the test agent are then quantified in comparison with the PGE2-standard curve. Dose-response data for the test agent are constructed and the potency and intrinsic activity determined as described above for other assays. […]

ocular normotensive mice = assay: Acute IOP response in mouse eyes; type: in vivo; settings: 0.1% topical, IOP at 6 and 24 hours; FIG. 7
Method: IOP is determined with an applanation pneumatonometer after light corneal anesthesia with 0.1% proparacaine. After baseline IOP measurements were taken, one eye of each of 8 mice was topically dosed with 0.1% FR-190997 in the formulation described in Example 10 or the vehicle of Example 10. The contralateral eye was dosed with vehicle as a control. Subsequent IOP measurements were taken at 6 and 24 hours.

CNC(=O)c1ccc(/C=C/C(=O)NCC(=O)N(C)c2ccc(Cl)c(COc3cccc4c(OCc5ccccn5)cc(C)nc34)c2Cl)cc1 [FR-190997]
% Change in IOP ([1]; Study 1, 30 μg topical ocular, Dose 1/1 hr): −4.6 ± 4.4%
% Change in IOP ([1]; Study 1, 30 μg topical ocular, Dose 1/3 hr): −16.4 ± 5.3%
% Change in IOP ([1]; Study 1, 30 μg topical ocular, Dose 1/6 hr): −34.5 ± 7.5%
% Change in IOP ([1]; Study 1, 30 μg topical ocular, Dose 2/16 hr): −51.6 ± 5.4%
% Change in IOP ([1]; Study 1, 30 μg topical ocular, Dose 2/40 hr): −35.5 ± 6.3%
% Change in IOP ([1]; Study 1, 30 μg topical ocular, Dose 2/132 hr): −3.5 ± 3.7%
% Change in IOP ([1]; Study 2, 3 μg topical ocular, Dose 1/24 hr): −25.9 ± 0.6%
% Change in IOP ([1]; Study 2, 3 μg topical ocular, Dose 1/48 hr): −19.7 ± 1.9%
% Change in IOP ([1]; Study 2, 3 μg topical ocular, Dose 1/120 hr): −7.7 ± 0.8%
% Change in IOP ([1]; Study 3, 10 μg topical ocular, Dose 1/24 hr): −27.2 ± 0.1%
% Change in IOP ([1]; Study 3, 10 μg topical ocular, Dose 1/48 hr): −32.5 ± 2.4%
% Change in IOP ([1]; Study 3, 10 μg topical ocular, Dose 1/120 hr): −9.7 ± 0.6%
% Change in IOP ([1]; Table 8 Study 1, 300 μg topical ocular, Dose 1/1 hr): 2.0 ± 0.6%
% Change in IOP ([1]; Table 8 Study 1, 300 μg topical ocular, Dose 1/3 hr): −6.9 ± 2.9%
% Change in IOP ([1]; Table 8 Study 1, 300 μg topical ocular, Dose 1/6 hr): −24.8 ± 10.3%
% Change in IOP ([1]; Table 8 Study 2, 300 μg topical ocular, Dose 1/1 hr): 6.7 ± 2.1%
% Change in IOP ([1]; Table 8 Study 2, 300 μg topical ocular, Dose 1/3 hr): −7.5 ± 3.1%
% Change in IOP ([1]; Table 8 Study 2, 300 μg topical ocular, Dose 1/6 hr): −15.4 ± 5.7%
% Change in IOP ([1]; Table 8 Study 3, 600 μg topical ocular, Dose 1/1 hr): −0.4 ± 0.2%
% Change in IOP ([1]; Table 8 Study 3, 600 μg topical ocular, Dose 1/3 hr): −10.6 ± 4.4%
% Change in IOP ([1]; Table 8 Study 3, 600 μg topical ocular, Dose 1/6 hr): −27.7 ± 11.3%
% Change in IOP ([1]; Table 8 Study 4, 600 μg topical ocular, Dose 1/1 hr): 4.9 ± 1.6%
% Change in IOP ([1]; Table 8 Study 4, 600 μg topical ocular, Dose 1/3 hr): −4.6 ± 2.0%
% Change in IOP ([1]; Table 8 Study 4, 600 μg topical ocular, Dose 1/6 hr): −18.4 ± 6.9%
% Change in IOP ([1]; Table 8 Study 4, 600 μg topical ocular, Dose 2/16 hr): −37.9 ± 14.1%
% Change in IOP ([1]; Table 8 Study 4, 600 μg topical ocular, Dose 2/40 hr): −31.2 ± 11.7%
% Change in IOP ([1]; Table 8 Study 4, 600 μg topical ocular, Dose 2/64 hr): −16.1 ± 6.1%
lowering of IOP ([1]; topical ocular, 0.03-600 μg/eye): significant dose-dependent lowering of IOP
production of prostaglandins (h-NPE cells): 1.26 fold above basal
effect on IOP in ocular normotensive mice (ocular normotensive mice): lower IOP
